Patent publication US4544629A, “Receptor-based histamine assay” (Minnesota Mining and Manufacturing Company, priority 1982, dated 1985)
Counter-ions that a name gives are not always drawn. Like-named read-outs stand apart in the source and are kept apart here. One block for each molecule: values may come before it.

How the values were obtained:
[1] = tested on: histamine receptor
Protocol: (§1) Samples of 200 microliters of heat-inactivated fetal calf sera were added to each well of a polystyrene microtiter plate as a protein pretreatment and the seracontaining plates were incubated at 25° C. for 15 minutes. Each well was then washed twice with phosphate-buffered saline. To each well was added 200 microliters of 1 millimolar trinitrobenzene sulfonate in phosphate-buffered saline, and the plate was incubated at 37° C. for thirty minutes. Each well was then washed three times with phosphate-buffered saline. To each well was then added 200 microliters of histamine receptor in phosphate buffered saline prepared according to the procedure of EXAMPLE 1. The plate was then incubated at 25° C. for thirty minutes. After the incubation, each well was washed three times with phosphate-buffered saline and the plates were allowed to air dry at 25° C. for about 16 hours, then stored at 4° C.

[2] = tested on: histamine receptor; conditions: read at 510 nm, blank .400, background .095
Protocol: (§2) In order to free the histamine receptors from the cell wall, the cells were washed three times in phosphate buffered saline, resuspended at a concentration of 1×10^7 cells per ml in phosphate-buffered saline and either stored at 4° C. for three days or incubated at 46° C. for 90 minutes. The cells were then centrifuged at 1000 X G for ten minutes. The supernatant liquid containing the shed histamine receptors was removed by aspiration and the cell pellet discarded.
as §1

[3] = tested on: histamine receptor on whole cells; conditions: 1×10^6 cells
Protocol: (§3) To determine the sensitivity of the histamine assay, an inhibition assay was performed using whole cells with histamine in 0.01M phosphate-bufferedsaline as the inhibitor. The histamine was incubated with 1×10^6cells for 30 minutes. The unbound inhibitor was washed out and the histamine-enzyme added and incubated 30 minutes. After washing out the unbound indicator, the enzyme substrate, p-nitrophenyl phosphate was added and incubated for 1 hour at 37° C. The enzymatic reaction was stopped with 1N aqueous sodium hydroxide and the absorbance at A410 read from a Beckman spectrophotometer. The amount of product formed was inversely proportional to the amount of free histamine bound to the cells.

[4] = tested on: histamine receptor on whole cells
Protocol: The reaction was stopped with 1N aqueous sodium hydroxide and the product formed was quantified spectrophotometrically. The total enzyme activity was determined by incubating 10 microliters of the dilutions of histamine-enzyme with the enzyme substrate for 60 minutes, stopping the reaction with lN aqueous sodium hydroxide and quantifying the product formed.

[5] = tested on: cell surface histamine receptors; conditions: phosphate-buffered saline
Protocol: as §2, §1
(§4) Cell surface histamine receptors prepared as described in EXAMPLE 1 were affixed to microtiter plate wells by protein pretreatment (see EXAMPLE 2) of the plate followed by surface activation with 1 millimolar trinitrobenzene sulfonate as described in EXAMPLE 2.
(§5) The various quantities of histamine in phosphate-buffered saline were incubated in several replications with the receptor. […] After washing out the unbound indicator, para-nitrophenyl phosphate was added and incubated for 1 hour at 37° C. The enzymatic reaction was stopped with 1N aqueous sodium hydroxide and the absorbance at A410 read from a Beckman spectrophotometer.

[6] = tested on: histamine receptors attached to a solid phase; conditions: anticoagulated human whole blood
Protocol: as §3, §4, §5
Using the method described in EXAMPLES 6 and 7, the sensitivity of the assay to histamine dissolved in anticoagulated human whole blood was measured.

Average 3H Counts per minute ([1]; control wells (nonspecific binding)): 1172 Counts per minute
Average 3H Counts per minute ([1]; receptor wells): 7968 Counts per minute
SMILES: [3H]c1nc(CCN)c([3H])[nH]1 [3H-labeled histamine, 2,5-^3 H-histamine hydrochloride]

Absorbance ([2]; 25 micrograms histamine per well): .310
Absorbance ([2]; 50 micrograms histamine per well): .285
Absorbance ([2]; 75 micrograms histamine per well): .205
Absorbance ([2]; 100 micrograms histamine per well): .125
Percent inhibition of enzyme activity ([6]; 1 ng histamine added): 49%
Percent inhibition of enzyme activity ([6]; 5 ng histamine added): 70%
Percent inhibition of enzyme activity ([6]; 10 ng histamine added): 79%
Percent inhibition of enzyme activity ([6]; 25 ng histamine added): 91%
SMILES: NCCc1c[nH]cn1 [Histamine, histamine]
Percent inhibition of enzyme activity ([3]; histamine added 500 pg): 7%
Percent inhibition of enzyme activity ([3]; histamine added 5 ng): 14%
Percent inhibition of enzyme activity ([3]; histamine added 50 ng): 24%
Percent inhibition of enzyme activity ([3]; histamine added 500 ng): 32%
Percent inhibition of enzyme activity ([3]; histamine added 5 g (so in the source)): 45%
Percent inhibition of enzyme activity ([3]; histamine added 50 g (so in the source)): 69%
Inhibition of receptor-bound histamine-enzyme stimulation [4]: inhibitable
Effect of added histamine on the enhanced enzyme activity ([4]; histamine added before incubation with histamine-alkaline phosphatase): inhibited
Percent inhibition of enzyme activity ([5]; 0.05 ng histamine added): 30%
Percent inhibition of enzyme activity ([5]; 0.1 ng histamine added): 40%
Percent inhibition of enzyme activity ([5]; 0.25 ng histamine added): 46%
Percent inhibition of enzyme activity ([5]; 0.5 ng histamine added): 52%
Percent inhibition of enzyme activity ([5]; 1 ng histamine added): 60%
Percent inhibition of enzyme activity ([5]; 5 ng histamine added): 65%
Percent inhibition of enzyme activity ([5]; 10 ng histamine added): 72%
Percent inhibition of enzyme activity ([5]; 25 ng histamine added): 79%
